The numbers were not newly measured in US6682694B2, “Uncomplexed cyclodextrin solutions for odor control on inanimate surfaces” (The Procter & Gamble Company, priority 1994, dated 2004), which cites them from elsewhere.

Details in one data set: not given
Take `ClC=CC[N+]12CN3CN(CN(C3)C1)C2.[Cl-]` [Dowicil 200, 1-(3-Chlorallyl)-3,5,7-triaza-1-azoniaadamantane chloride]: the “solubility in water” value was “freely soluble in water”.

The data set is the same for the next values; noted with them: in water.
`OCCOc1ccccc1` [2-phenoxyethanol]: the water solubility entry was “about 2.67%”. `OCCc1ccccc1` [2-phenylethanol]: the water solubility result is “about 2%”. Consider `O=[N+]([O-])C1(Br)COCOC1` [Bronidox L, 5-bromo-5-nitro-1,3-dioxane], for which the water solubility entry is given as “about 0.46%”. With `O=[N+]([O-])C(Br)(CO)CO` [Bronopol, 2-bromo-2-nitropropane-1,3-diol], the water solubility entry is “about 25%”. `CC1(C)C(=O)N(CO)C(=O)N1CO` [DMDM hydantoin, 1,3-bis(hydroxymethyl)-5,5-dimethyl-2,4-imidazolidinedione]: the water solubility result is on record as “more than 50%”.

Take `OCc1ccccc1` [benzyl alcohol]: the water solubility result is given as “about 4%”. As for `[H]/N=C(\N/C(=N/[H])NCCCCCCNC(=N)NC(=N)Nc1ccc(Cl)cc1)Nc1ccc(Cl)cc1` [chlorhexidine diacetate, 1,1′-hexamethylene bis(5-(p-chlorophenyl)biguanide), reference compound], the water solubility result is “about 1.8%”. As to `[H]/N=C(\N/C(=N/[H])NCCCCCCNC(=N)NC(=N)Nc1ccc(Cl)cc1)Nc1ccc(Cl)cc1` [chlorhexidine digluconate, 1,1′-hexamethylene bis(5-(p-chlorophenyl)biguanide), reference compound], the water solubility entry is listed as “about 70%”. On to `CC(C)(O)C(Cl)(Cl)Cl` [chlorobutanol, 1,1,1-Trichloro-2-methylpropan-2-ol, reference compound], for which the water solubility entry was “about 0.8%”. As to `[Na+].[O-][n+]1ccccc1[S-]` [sodium pyrithione], the water solubility result was “about 50%”.
